Data from patent publication US20250145579A1, “PROCESS FOR MANUFACTURING AN LPXC ANALOG” (Zoetis Services LLC, priority 2022, published 2025).
“Also recorded” adds a separate entry of the source.

Test: Relative stability of isolated solid forms (slurry experiments, XRD)
Format: physicochemical
Conditions: for relative stability of the solid form: as isolated solids
Protocol: A number of polymorphic forms of (R)-4-(4-(4-(2H-1,2,3-triazol-2-yl)phenyl)-2-oxopyridin-1 (2H)-yl)-N-hydroxy-2-methyl-2-(methylsulfonyl)-butanamide were prepared (Forms 1, 2 and 3) as API slurries in a number of protic and aprotic solvents. With the exception of acetonitrile, methyl ethyl ketone, and tetrahydrofuran, the use of aprotic solvents like ethyl, butyl or propyl acetate result in Form 1. With the exception of water, the use of protic solvents such as butyl, propyl and ethyl alcohol favor the formation of Form 2. An unstable Form 3 was also noted. The presence of water in alcohols increased the rate of Form 2 isolation from solution. […] The three forms were structurally related and were solvated and/or hydrated.
The relative stability of the three isolated solid forms appears to be different as suspensions compared to isolated solids. […] As suspensions, the relative stability of these solvates is dependent on the solvent or solvent/water mixture that is present.
It is very likely that these three solvated solids are nearly isostructural and differ in subtle ways that are linked to the way solvent or water are packed into the solvation sites in the structure. There is an increasing complexity of the XRD patterns with Form 1 being the most complex (most peaks) and Form 3 having the fewest peaks. This pattern complexity (F1>F2>F3) parallels the apparent stability of the dried isolated samples. Out of 384 solvent mixtures, a total of 90 samples were mixtures rather than pure phase Forms.
The X-ray diffractograms were obtained on a Scintag X1 powder diffractometer equipped with a Peltier cooled solid state detector. Data were collected between 4 and 40° 20 using a 0.03° step size and data acquisition time was 45 to 60 minutes for sample characterization. Data collection for solids isolated from the bulk of the small scale preliminary experiments was at a 0.04° step size over 15 minutes between 7 and 37 degrees 2-theta. Copper Kα radiation (λ=1.54056 Å) was utilized and the tube voltage and amperage were set to 45 kV and 40 mA, respectively. […]

Structure (SMILES) | relative stability of the solid form | stability of the solid form / form conversion (by XRD patterns of isolated solids from slurries)
C[C@@](CCn1ccc(-c2ccc(-n3nccn3)cc2)cc1=O)(C(=O)NO)S(C)(=O)=O [Form 1, (R)-4-(4-(4-(2H-1,2,3-triazol-2-yl)phenyl)-2-oxopyridin-1 (2H)-yl)-N-hydroxy-2-methyl-2-(methylsulfonyl)-butanamide] | most stable form | –
C[C@@](CCn1ccc(-c2ccc(-n3nccn3)cc2)cc1=O)(C(=O)NO)S(C)(=O)=O [Form 2, (R)-4-(4-(4-(2H-1,2,3-triazol-2-yl)phenyl)-2-oxopyridin-1 (2H)-yl)-N-hydroxy-2-methyl-2-(methylsulfonyl)-butanamide] | meta-stable relative to Form 1 | –
C[C@@](CCn1ccc(-c2ccc(-n3nccn3)cc2)cc1=O)(C(=O)NO)S(C)(=O)=O [Form 3, (R)-4-(4-(4-(2H-1,2,3-triazol-2-yl)phenyl)-2-oxopyridin-1 (2H)-yl)-N-hydroxy-2-methyl-2-(methylsulfonyl)-butanamide] | – | unstable; also recorded: meta-stable and converts to Form 2
